Measured values taken from patent publication US10053468B2, “Heterocyclic compound” (TAKEDA PHARMACEUTICAL COMPANY LIMITED, priority 2013, dated 2018).
Read-outs that look alike come from different tables or passages of the source.

Experiments:
RORγt [1] = biological target: T1, RORγt (Homo sapiens, UniProt P51449); assay: Jurkat reporter test (human IL-17 ROR response element luciferase, RORγt vector); type: cell-based; settings: read-out: Luminescence level inhibitory rate at test compound 3 μM (%)
T1 sequence (P51449 1-497 isoform P51449-2): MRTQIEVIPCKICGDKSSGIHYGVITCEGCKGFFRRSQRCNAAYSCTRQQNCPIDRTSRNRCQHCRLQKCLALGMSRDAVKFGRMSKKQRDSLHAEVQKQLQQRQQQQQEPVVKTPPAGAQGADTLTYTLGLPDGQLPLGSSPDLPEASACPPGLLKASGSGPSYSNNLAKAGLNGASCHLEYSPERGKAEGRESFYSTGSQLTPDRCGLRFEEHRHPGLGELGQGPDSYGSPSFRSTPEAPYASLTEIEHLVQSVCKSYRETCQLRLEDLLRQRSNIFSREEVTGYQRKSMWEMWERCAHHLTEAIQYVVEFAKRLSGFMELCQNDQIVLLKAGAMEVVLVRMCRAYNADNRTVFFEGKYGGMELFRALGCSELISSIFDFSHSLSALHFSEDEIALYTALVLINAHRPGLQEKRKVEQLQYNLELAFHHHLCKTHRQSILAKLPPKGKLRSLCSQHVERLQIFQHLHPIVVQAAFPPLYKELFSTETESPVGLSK
Summary of the method: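 Jurkat cells were electroporated (1350 V, 10 ms, 3 pulses) with reporter constructs, then cultured overnight with compound in RPMI containing 10% lipid-reduced FCS, 10 mM HEPES pH 7.5 and 5 μM lovastatin. Luciferase was quantified by Bright-Glo luminescence after 10 min at room temperature.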

RORγt [2] = biological target: T1, RORγt; assay: RORγt binding test using fluorescent-labeled synthetic ligand (TR-FRET); settings: read-out: Binding inhibitory rate of fluorescent-labeled synthetic ligand to RORγt at test compound 1 μM (%)
Method: RORγt Binding Test Using Fluorescent-labeled Synthetic Ligand
The binding activity of the test compound to RORγt was measured by a time resolved fluorescence resonance energy transfer method (TR-FRET) utilizing histidine-tagged RORγt, fluorescent-labeled synthetic ligand, and terbium-labeled anti-histidine tag antibody (Invitrogen). First, a test compound diluted with an assay buffer (20 mM Tris-HCl (pH 7.5), 100 mM NaCl, 1 mM DTT, 0.1% BSA) was added to a 384 well plate by 3 μL. Then, RORγt diluted with an assay buffer to 240 nM was added by 3 μL, after which fluorescent-labeled synthetic ligand diluted with the assay buffer to 12 μM was added by 3 μL, and the mixture was stood at room temperature for 20 min. Thereafter, a terbium-labeled anti-histidine tag antibody diluted with the assay buffer to 8 nM was added by 3 μL. The mixture was stood at room temperature for 20 min, and fluorescence intensity (excitation wavelength 320 nm, fluorescence wavelength 520 nm, delay time 100 microseconds) was measured by Envision (PerkinElmer).

RORγt [3] = biological target: T1, RORγt; assay: Cofactor recruitment test (Alpha Screen, biotinylated SRC-1 peptide); type: biochemical; settings: read-out: Signal value inhibitory rate at test compound 1 μM (%)
Method: Cofactor Recruitment Test
Cofactor recruitment test was performed by Alpha Screen (Histidine Detection Kit, PerkinElmer) method. First, a test compound was diluted with an assay buffer (50 mM Tris-HCl (pH 7.5), 50 mM KCl, 1 mM DTT, 0.1% BSA) and added to a 384 well plate by 5 μL. […] The mixture was stood in a dark place for 1 hr, and the signal value was measured by Envision (PerkinElmer).

RORγt [4] = biological target: T1, RORγt; assay: RORγt binding test using fluorescent-labeled cholesterol (TR-FRET); settings: read-out: Binding inhibitory rate of fluorescent-labeled cholesterol to RORγt at test compound 1 μM (%)
Summary of the method: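 TR-FRET displacement with His-tagged RORγt, BODIPY-cholesterol and Tb-anti-His antibody in Tris-HCl pH 7.5, 100 mM NaCl, 1 mM DTT, 0.1% BSA. Compound, RORγt and labelled cholesterol were incubated 20 min at RT, then antibody was added for another 20 min.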

[5] = test compound 3 μM, Jurkat cells

| SMILES | inhibition at 3 µM (RORγt [1]; [5]) [%] | inhibition at 1 µM (RORγt [2]) [%] | inhibition at 1 µM (RORγt [3]) [%] | inhibition at 1 µM (RORγt [4]) [%] | inhibition at 3 µM (RORγt [1]; Jurkat) [%] |
| --- | --- | --- | --- | --- | --- |
| CCOc1ccc2c(c1)CCN(C(=O)Cc1cc(O)no1)[C@H]2C(=O)Nc1cc(F)c2c(c1)CCC2(C)C [Example 66, (1R)-6-ethoxy-N-(7-fluoro-1,1-dimethyl-2,3-dihydro-1H-inden-5-yl)-2-((3-hydroxy-1,2-oxazol-5-yl)acetyl)-1,2,3,4-tetrahydroisoquinoline-1-carboxamide] | 99.5 | 102 | 82 | 102 |  |
| CCOc1ccc2c(c1)CCN(C(=O)Cc1cc(O)no1)[C@H]2C(=O)Nc1ccc(C(C)(C)C)c(F)c1 [Example 67, (1R)-N-(4-tert-butyl-3-fluorophenyl)-6-ethoxy-2-((3-hydroxy-1,2-oxazol-5-yl)acetyl)-1,2,3,4-tetrahydroisoquinoline-1-carboxamide] | 100 | 102 | 87 | 103 |  |
| COCC(C)(C)c1ccc(NC(=O)[C@H]2c3ccc(OC)cc3CCN2C(=O)c2cc(O)no2)cc1F [Example 69, (1R)-N-(3-fluoro-4-(1-methoxy-2-methylpropan-2-yl)phenyl)-2-((3-hydroxy-1,2-oxazol-5-yl)carbonyl)-6-methoxy-1,2,3,4-tetrahydroisoquinoline-1-carboxamide] | 100 | 101 | 83 | 102 |  |
| COCC(C)(C)c1ccc(NC(=O)[C@H]2c3ccc(OC)cc3CCN2C(=O)Cc2cc(O)no2)cc1F [Example 70, (1R)-N-(3-fluoro-4-(1-methoxy-2-methylpropan-2-yl)phenyl)-2-((3-hydroxy-1,2-oxazol-5-yl)acetyl)-6-methoxy-1,2,3,4-tetrahydroisoquinoline-1-carboxamide] | 99 | 102 | 82 | 102 |  |
| COc1ccc2c(c1)CCN(C(=O)Cc1cc(O)no1)[C@H]2C(=O)Nc1ccc([Si](C)(C)C)c(C#N)c1 [Example 72, (1R)-N-(3-cyano-4-(trimethylsilyl)phenyl)-2-((3-hydroxy-1,2-oxazol-5-yl)acetyl)-6-methoxy-1,2,3,4-tetrahydroisoquinoline-1-carboxamide] |  | 102 | 94 | 104 | 100 |
| COc1ccc2c(c1)CCN(C(=O)Cc1cc(O)no1)[C@H]2C(=O)Nc1ccc([Si](C)(C)C)c(F)c1 [Example 73, (1R)-N-(3-fluoro-4-(trimethylsilyl)phenyl)-2-((3-hydroxy-1,2-oxazol-5-yl)acetyl)-6-methoxy-1,2,3,4-tetrahydroisoquinoline-1-carboxamide] |  | 102 | 90 | 102 | 100 |
| COc1ccc2c(c1)CCN(C(=O)c1cc(O)no1)[C@H]2C(=O)Nc1ccc(C(C)(C)COCC(F)F)c(F)c1 [Example 75, (1R)-N-(4-(1-(2,2-difluoroethoxy)-2-methylpropan-2-yl)-3-fluorophenyl)-2-((3-hydroxy-1,2-oxazol-5-yl)carbonyl)-6-methoxy-1,2,3,4-tetrahydroisoquinoline-1-carboxamide] | 96 | 102 | 78 | 101 |  |
| COc1ccc2c(n1)CCN(C(=O)Cc1cc(O)no1)[C@H]2C(=O)Nc1ccc(C(C)(C)C)c(F)c1 [Example 78, (5R)-N-(4-tert-butyl-3-fluorophenyl)-6-((3-hydroxy-1,2-oxazol-5-yl)acetyl)-2-methoxy-5,6,7,8-tetrahydro-1,6-naphthyridine-5-carboxamide] | 101 | 102 | 89 | 101 |  |
| COc1ccc2c(n1)CCN(C(=O)c1cc(O)no1)[C@H]2C(=O)Nc1ccc([Si](C)(C)C)c(F)c1 [Example 79, (5R)-N-(3-fluoro-4-(trimethylsilyl)phenyl)-6-((3-hydroxy-1,2-oxazol-5-yl)carbonyl)-2-methoxy-5,6,7,8-tetrahydro-1,6-naphthyridine-5-carboxamide] |  | 102 | 97 | 102 | 102 |
| COc1ccc2c(n1)CCN(C(=O)Cc1cc(O)no1)[C@H]2C(=O)Nc1ccc([Si](C)(C)C)c(F)c1 [Example 80, (5R)-N-(3-fluoro-4-(trimethylsilyl)phenyl)-6-((3-hydroxy-1,2-oxazol-5-yl)acetyl)-2-methoxy-5,6,7,8-tetrahydro-1,6-naphthyridine-5-carboxamide] |  | 102 | 97 | 102 | 100 |
| CC[Si](C)(C)c1c(F)cc(NC(=O)[C@H]2c3ccc(OC)cc3CCN2C(=O)CCCC(=O)O)cc1F [Example 86, 5-((1R)-1-((4-(ethyl(dimethyl)silyl)-3,5-difluorophenyl)carbamoyl)-6-methoxy-3,4-dihydroisoquinolin-2(1H)-yl)-5-oxopentanoic acid] |  | 102 | 98 | 103 | 101 |
| COCC(C)(C)c1c(F)cc(NC(=O)[C@H]2c3ccc(OC)cc3CCN2C(=O)c2cc(O)no2)cc1F [Example 97, (1R)-N-(3,5-difluoro-4-(1-methoxy-2-methylpropan-2-yl)phenyl)-2-((3-hydroxy-1,2-oxazol-5-yl)carbonyl)-6-methoxy-1,2,3,4-tetrahydroisoquinoline-1-carboxamide] | 102 | 101 | 96 | 102 |  |
| COCC(C)(C)c1c(F)cc(NC(=O)[C@H]2c3ccc(OC)cc3CCN2C(=O)Cc2cc(O)no2)cc1F [Example 98, (1R)-N-(3,5-difluoro-4-(1-methoxy-2-methylpropan-2-yl)phenyl)-2-((3-hydroxy-1,2-oxazol-5-yl)acetyl)-6-methoxy-1,2,3,4-tetrahydroisoquinoline-1-carboxamide] | 102 | 102 | 96 | 99 |  |
| COCc1ccc2c(c1)CCN(C(=O)Cc1cc(O)no1)[C@H]2C(=O)Nc1ccc([Si](C)(C)C)c(F)c1 [Example 101, (1R)-N-(3-fluoro-4-(trimethylsilyl)phenyl)-2-((3-hydroxy-1,2-oxazol-5-yl)acetyl)-6-(methoxymethyl)-1,2,3,4-tetrahydroisoquinoline-1-carboxamide] |  | 102 | 99 | 102 | 103 |
| COc1ccc2c(c1)CCN(C(=O)CC#N)[C@H]2C(=O)Nc1cc(F)c(C(C)(C)C(=O)N2CCCC2)c(F)c1 [Example 103, (1R)-2-(cyanoacetyl)-N-(3,5-difluoro-4-(2-methyl-1-oxo-1-(pyrrolidin-1-yl)propan-2-yl)phenyl)-6-methoxy-1,2,3,4-tetrahydroisoquinoline-1-carboxamide] | 102 | 101 | 101 | 104 |  |
| COc1ccc2c(c1)CCN(C(=O)CC(F)(F)F)[C@H]2C(=O)Nc1cc(F)c(C(C)(C)C(=O)N2CCCC2)c(F)c1 [Example 104, (1R)-N-(3,5-difluoro-4-(2-methyl-1-oxo-1-(pyrrolidin-1-yl)propan-2-yl)phenyl)-6-methoxy-2-(3,3,3-trifluoropropanoyl)-1,2,3,4-tetrahydroisoquinoline-1-carboxamide] | 102 | 101 | 101 | 102 |  |
